For assay [1], the target named is T1, IDH2 R140Q (Homo sapiens, UniProt P48735, R140Q).
T1 sequence (P48735 40-452 R140Q): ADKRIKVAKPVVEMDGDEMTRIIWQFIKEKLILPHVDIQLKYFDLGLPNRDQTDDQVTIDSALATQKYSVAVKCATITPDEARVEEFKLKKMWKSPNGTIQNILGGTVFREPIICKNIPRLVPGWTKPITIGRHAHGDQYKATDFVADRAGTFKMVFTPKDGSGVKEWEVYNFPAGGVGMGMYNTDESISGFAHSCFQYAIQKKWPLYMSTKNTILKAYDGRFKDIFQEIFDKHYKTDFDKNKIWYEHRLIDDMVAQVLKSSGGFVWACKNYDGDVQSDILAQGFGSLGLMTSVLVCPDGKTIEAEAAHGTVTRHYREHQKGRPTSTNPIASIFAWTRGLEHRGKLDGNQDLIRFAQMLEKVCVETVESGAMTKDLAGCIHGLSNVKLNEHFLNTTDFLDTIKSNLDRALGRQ
Nature of the assay: IDH2 R140Q enzymatic assay (cofactor depletion, similar format). It is filed as biochemical. The settings on record: read-out: Enz R140Q.

The subject of assay [2] is U87MG pLVX-IDH2 R140Q-neo cells. Nature of the assay: U87MG pLVX-IDH2 R140Q-neo cell based assay, 2-HG in media by LC-MS at 48 hours. The settings on record: Homo sapiens, U-87 MG. Summed up: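 U87MG cells stably expressing IDH2 R140Q were seeded overnight, then exposed to compound at 0.2% final DMSO at 37 °C, 5% CO2. 2-HG in the medium was quantified by LC-MS at 48 h. Growth inhibition was read by CellTiter-Glo luminescence at 72 h.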

As to `C#Cc1cccc(-c2nc(Nc3cccc(S(C)(=O)=O)c3)nc(NC(C)C)n2)n1` [Compound 360, 6-(6-ethynylpyridine-2-yl)-N^2-isopropyl-N^4-(3-(methylsulfonyl)phenyl)-1,3,5-triazine-2,4-diamine], the IC50 in assay [1] and in assay [2] was 100 to 1000 nM throughout.

`COc1cccc(-c2nc(Nc3cccc(S(C)(=O)=O)c3)nc(NC(C)C)n2)n1` [Compound 361, N^2-isopropyl-6-(6-methoxypyridin-2-yl)-N^4-(3-(methylsulfonyl)phenyl)-1,3,5-triazine-2,4-diamine]: the IC50 in assay [1] and in assay [2] was 100 to 1000 nM in each case.

As to `O=C1C=C(Nc2nc(Nc3ccccc3)nc(-c3ccccc3)n2)CCC1` [Compound 362, 3-(4-phenyl-6-(phenylamino)-1,3,5-triazin-2-ylamino)cyclohex-2-enone], the IC50 in assay [1] and in assay [2] was 100 to 1000 nM throughout.

Take `CC(C)(C)CNc1nc(Nc2ccc(F)nc2)nc(-c2ccccn2)n1` [Compound 363, N^2-(6-fluoropyridin-3-yl)-N^4-neopentyl-6-(pyridin-2-yl)-1,3,5-triazine-2,4-diamine]: the IC50 in assay [1] is 100 to 1000 nM; in assay [2] it was below 100 nM.

`CNc1cccc(-c2nc(Nc3cccc(S(C)(=O)=O)c3)nc(NC(C)C)n2)n1` [Compound 364, N^2-isopropyl-6-(6-(methylamino)pyridin-2-yl)-N^4-(3-(methylsulfonyl)phenyl)-1,3,5-triazine-2,4-diamine]: the results for the IC50 in assay [1] and in assay [2] were 1000 to 10000 nM and 100 to 1000 nM, respectively.

Consider `CC(C)Nc1nc(Nc2cccc(S(C)(=O)=O)c2)nc(-c2cccc(C(F)F)n2)n1` [Compound 366, 6-(6-(difluoromethyl)pyridin-2-yl)-N^2-isopropyl-N^4-(3-(methylsulfonyl)phenyl)-1,3,5-triazine-2,4-diamine], for which the IC50 in assay [1] is 100 to 1000 nM; in assay [2] it was below 100 nM.

In the case of `CC(C)(O)CNc1nc(Nc2cncc(C(F)(F)F)c2)nc(-c2cccc(Cl)n2)n1` [Compound 367, 1-(4-(6-chloropyridin-2-yl)-6-(5-(trifluoromethyl)pyridin-3-ylamino)-1,3,5-triazin-2-ylamino)-2-methylpropan-2-ol], the IC50 in assay [1] is 100 to 1000 nM; in assay [2] it was below 100 nM.

On to `CC(C)(O)CNc1nc(Nc2ccnc(F)c2)nc(-c2cccc(Cl)n2)n1` [Compound 368, 1-(4-(6-chloropyridin-2-yl)-6-(2-fluoropyridin-4-ylamino)-1,3,5-triazin-2-ylamino)-2-methylpropan-2-ol], for which the IC50 is 1000 to 10000 nM in assay [1] and below 100 nM in assay [2].

For the compound `CC(C)Nc1nc(Nc2ccnc(C#N)c2)nc(-c2ccccc2F)n1` [Compound 369, 4-(4-(2-fluorophenyl)-6-(isopropylamino)-1,3,5-triazin-2-ylamino)picolinonitrile], the IC50 in assay [1] and in assay [2] was below 100 nM throughout.

On to `CC(C)Nc1nc(Nc2ccnc(C(F)(F)F)c2)nc(-c2ccccc2F)n1` [Compound 370, 6-(2-fluorophenyl)-N^2-isopropyl-N^4-(2-(trifluoromethyl)pyridin-4-yl)-1,3,5-triazine-2,4-diamine], for which the IC50 in assay [1] and in assay [2] was below 100 nM each time.

For the compound `CC(C)Nc1nc(Nc2ccnc(F)c2)nc(-c2ccccc2F)n1` [Compound 371, 6-(2-fluorophenyl)-N^2-(2-fluoropyridin-4-yl)-N^4-isopropyl-1,3,5-triazine-2,4-diamine], the IC50 in assay [1] and in assay [2] was below 100 nM each time.

Consider `CC(C)Nc1nc(Nc2cccc(S(=O)(=O)N3CCC3)c2)nc(-c2ccccc2)n1` [Compound 376, N^2-(3-(azetidin-1-ylsulfonyl)phenyl)-N^4-isopropyl-6-phenyl-1,3,5-triazine-2,4-diamine], for which the IC50 in assay [1] is 100 to 1000 nM; in assay [2], below 100 nM.

Consider `Fc1cc(Nc2nc(NC3COC3)nc(-c3cccc(C(F)(F)F)n3)n2)ccn1` [Compound 377, N^2-(2-fluoropyridin-4-yl)-N^4-(oxetan-3-yl)-6-(6-(trifluoromethyl)pyridin-2-yl)-1,3,5-triazine-2,4-diamine], for which the IC50 in assay [1] was 100 to 1000 nM; in assay [2], below 100 nM.

For `FC(F)(F)c1cc(Nc2nc(NC3COC3)nc(-c3cccc(C(F)(F)F)n3)n2)ccn1` [Compound 378, N^2-(oxetan-3-yl)-6-(6-(trifluoromethyl)pyridin-2-yl)-N^4-(2-(trifluoromethyl)pyridin-4-yl)-1,3,5-triazine-2,4-diamine], the IC50 in assay [1] was 100 to 1000 nM; in assay [2] it was below 100 nM.

On to `FC(F)(F)c1cncc(Nc2nc(NC3COC3)nc(-c3cccc(C(F)(F)F)n3)n2)c1` [Compound 379, N^2-(oxetan-3-yl)-6-(6-(trifluoromethyl)pyridin-2-yl)-N^4-(5-(trifluoromethyl)pyridin-3-yl)-1,3,5-triazine-2,4-diamine], for which the IC50 in assay [1] is 100 to 1000 nM; in assay [2], below 100 nM.

As for `Fc1ccc(Nc2nc(NC3COC3)nc(-c3cccc(C(F)(F)F)n3)n2)cn1` [Compound 380, N^2-(6-fluoropyridin-3-yl)-N^4-(oxetan-3-yl)-6-(6-(trifluoromethyl)pyridin-2-yl)-1,3,5-triazine-2,4-diamine], the IC50 in assay [1] and in assay [2] was 100 to 1000 nM each time.

Consider `Fc1cncc(Nc2nc(NC3COC3)nc(-c3cccc(C(F)(F)F)n3)n2)c1` [Compound 381, N^2-(5-fluoropyridin-3-yl)-N^4-(oxetan-3-yl)-6-(6-(trifluoromethyl)pyridin-2-yl)-1,3,5-triazine-2,4-diamine], for which the IC50 in assay [1] was 100 to 1000 nM; in assay [2] it was below 100 nM.

On to `CC(C)Nc1nc(Nc2cncc(C#N)c2)nc(-c2cccc(Cl)n2)n1` [Compound 382, 5-(4-(6-chloropyridin-2-yl)-6-(isopropylamino)-1,3,5-triazin-2-ylamino)nicotinonitrile], for which the figures for the IC50 in assay [1] and in assay [2] were 100 to 1000 nM and below 100 nM, respectively.

As to `CC(C)Nc1nc(Nc2cncc(F)c2)nc(-c2cccc(Cl)n2)n1` [Compound 383, 6-(6-chloropyridin-2-yl)-N^2-(5-fluoropyridin-3-yl)-N^4-isopropyl-1,3,5-triazine-2,4-diamine], the IC50 in assay [1] was 100 to 1000 nM; in assay [2] it was below 100 nM.

For `CC(C)Nc1nc(Nc2ccnc(F)c2)nc(-c2cccc(Cl)n2)n1` [Compound 384, 6-(6-chloropyridin-2-yl)-N^2-(2-fluoropyridin-4-yl)-N^4-isopropyl-1,3,5-triazine-2,4-diamine], the IC50 in assay [1] was 100 to 1000 nM; in assay [2], below 100 nM.

For the compound `CC(C)(O)CNc1nc(Nc2ccc(F)nc2)nc(-c2cccc(C(F)(F)F)n2)n1` [Compound 385, 1-(4-(6-fluoropyridin-3-ylamino)-6-(6-(trifluoromethyl)pyridin-2-yl)-1,3,5-triazin-2-ylamino)-2-methylpropan-2-ol], the figures for the IC50 in assay [1] and in assay [2] were 1000 to 10000 nM and 100 to 1000 nM, respectively.

Regarding `CC(C)Nc1nc(Nc2ccc(F)nc2)nc(-c2ccccc2F)n1` [Compound 387, 6-(2-fluorophenyl)-N^2-(6-fluoropyridin-3-yl)-N^4-isopropyl-1,3,5-triazine-2,4-diamine], the IC50 in assay [1] and in assay [2] was below 100 nM each time.

For the compound `CC(C)(O)CNc1nc(Nc2ccc(F)nc2)nc(-c2cccc(Cl)n2)n1` [Compound 388, 1-(4-(6-chloropyridin-2-yl)-6-(6-fluoropyridin-3-ylamino)-1,3,5-triazin-2-ylamino)-2-methylpropan-2-ol], the IC50 was 1000 to 10000 nM in assay [1] and 100 to 1000 nM in assay [2].

Regarding `CC(O)CNc1nc(Nc2ccnc(C(F)(F)F)c2)nc(-c2cccc(Cl)n2)n1` (centres unmarked) [Compound 389, 1-(4-(6-chloropyridin-2-yl)-6-(2-(trifluoromethyl)pyridin-4-ylamino)-1,3,5-triazin-2-ylamino)propan-2-ol], the IC50 in assay [1] is 1000 to 10000 nM; in assay [2] it was below 100 nM.

`CC(C)(O)CNc1nc(Nc2cncc(F)c2)nc(-c2cccc(Cl)n2)n1` [Compound 390, 1-(4-(6-chloropyridin-2-yl)-6-(5-fluoropyridin-3-ylamino)-1,3,5-triazin-2-ylamino)-2-methylpropan-2-ol]: the IC50 lay within 1000 to 10000 nM in assay [1] and 100 to 1000 nM in assay [2].

Turning to `CC(C)(O)CNc1nc(Nc2ccnc(C(F)(F)F)c2)nc(-c2cccc(Cl)n2)n1` [Compound 391, 1-(4-(6-chloropyridin-2-yl)-6-(2-(trifluoromethyl)pyridin-4-ylamino)-1,3,5-triazin-2-ylamino)-2-methylpropan-2-ol], the IC50 is 100 to 1000 nM in assay [1] and below 100 nM in assay [2].

Regarding `CC(C)(O)CNc1nc(Nc2cncc(C(F)(F)F)c2)nc(-c2ccccc2F)n1` [Compound 392, 1-(4-(2-fluorophenyl)-6-(5-(trifluoromethyl)pyridin-3-ylamino)-1,3,5-triazin-2-ylamino)-2-methylpropan-2-ol], the IC50 in assay [1] is 100 to 1000 nM; in assay [2], below 100 nM.

Regarding `Fc1cc(Nc2nc(NC3COC3)nc(-c3cccc(Cl)n3)n2)ccn1` [Compound 393, 6-(6-chloropyridin-2-yl)-N^2-(2-fluoropyridin-4-yl)-N^4-(oxetan-3-yl)-1,3,5-triazine-2,4-diamine], the IC50 was 100 to 1000 nM in assay [1] and below 100 nM in assay [2].

For the origin of these results see patent US9512107B2, “Therapeutically active compositions and their methods of use” (Agios Pharmaceuticals, Inc., priority 2012, dated 2016).
